This is an account of results in patent publication US20260085077A1, “HETEROCYCLIC DERIVATIVES AS JANUS KINASE INHIBITORS” (CHIESI FARMACEUTICI S.P.A., priority 2022, published 2026).

Usually IC50 stands for the concentration needed to halve the response being measured.

For the test, the system named is IL-13 induced pSTAT6 in BEAS-2B human cell line. In words: Inhibition of IL-13 induced pSTAT6 in BEAS. Type of test: cell-based. The conditions noted are these: IL-13 induced pSTAT6, BEAS-2B cells, ELISA. The protocol: BEAS-2B human cell line was seeded (100.000 cells/well) and incubated for 48 h at 37° C., 5% CO2, 95% humidity. Compounds were added and incubated 30 min followed by IL-13 as trigger. After 30 min incubation, cells were lysed and pSTAT6 determined by Fastscan phospho-stat6 (Tyr641) sandwich ELISA kit (cell signaling). Inhibitors were tested at 11 consecutive […] dilutions starting from 10 μM (10 μM-40 pM) in duplicate. Calculation of IC50 data, curves and QC analysis were made using Excel tools and GraphPadPrism software. QC criteria parameters: Z′≥0.35, Hill Slope range 0.5 to 5, S:B>2.
Background: ELISA stands for enzyme-linked immunosorbent assay.
`COc1cc2c(cc1-n1nc(C)c3cnc(-c4cnn5cccnc45)cc31)OCCN2` [Example 40, 6-methoxy-7-(3-methyl-6-(pyrazolo[1,5-a]pyrimidin-3-yl)-1H-pyrazolo[4,3-c]pyridin-1-yl)-3,4-dihydro-2H-benzo[b][1,4]oxazine] had an IC50 of 5.01 to 50.1 nM.
In turn, `COc1cc2c(cc1-n1nc(C(=O)NCCCN(C)C)c3cnc(-c4cnn5cccnc45)cc31)CCC(=O)N2` [Example 24, N-(3-(dimethylamino)propyl)-1-(7-methoxy-2-oxo-1,2,3,4-tetrahydroquinolin-6-yl)-6-(pyrazolo[1,5-a]pyrimidin-3-yl)-1H-pyrazolo[4,3-c]pyridine-3-carboxamide] gave an IC50 of 50.1 to 501 nM.
The compound `COc1cc2c(cc1-n1nc(NC(=O)OCCCN(C)C)c3cnc(-c4cnn5cccnc45)cc31)OCCN2` [Example 60, 3-(dimethylamino)propyl (1-(6-methoxy-3,4-dihydro-2H-benzo[b][1,4]oxazin-7-yl)-6-(pyrazolo[1,5-a]pyrimidin-3-yl)-1H-pyrazolo[4,3-c]pyridin-3-yl)carbamate] gave an IC50 of 5.01 to 50.1 nM.
`COc1cc2c(cc1-n1nc(C(=O)NC3CN(CC4CCOCC4)C3)c3cnc(-c4cnn5cccnc45)cc31)OCCN2` [Example 13] showed a concentration for half-maximal inhibition (IC50) of 5.01 to 50.1 nM.
`COc1cc2c(cc1-n1nc(C(=O)NCCN3CCC(OC)CC3)c3cnc(-c4cnn5cccnc45)cc31)OCCN2` [Example 46, 1-(6-methoxy-3,4-dihydro-2H-benzo[b][1,4]oxazin-7-yl)-N-(2-(4-methoxypiperidin-1-yl)ethyl)-6-(pyrazolo[1,5-a]pyrimidin-3-yl)-1H-pyrazolo[4,3-c]pyridine-3-carboxamide] gave an IC50 of less than 5.01 nM.
`COc1cc2c(cc1-n1nc(C(=O)NCCN3CCC(C4(O)COC4)CC3)c3cnc(-c4cnn5cccnc45)cc31)OCCN2` [Example 85, N-(2-(4-(3-hydroxyoxetan-3-yl)piperidin-1-yl)ethyl)-1-(6-methoxy-3,4-dihydro-2H-benzo[b][1,4]oxazin-7-yl)-6-(pyrazolo[1,5-a]pyrimidin-3-yl)-1H-pyrazolo[4,3-c]pyridine-3-carboxamide] gave a concentration for half-maximal inhibition (IC50) of 5.01 to 50.1 nM.
`COc1cc2c(cc1-n1nc(C)c3cnc(-c4cnn5cccnc45)cc31)OCCCN2` [Example 9, 7-methoxy-8-(3-methyl-6-(pyrazolo[1,5-a]pyrimidin-3-yl)-1H-pyrazolo[4,3-c]pyridin-1-yl)-2,3,4,5-tetrahydrobenzo[b][1,4]oxazepine] gave a 50% inhibitory concentration (IC50) of 5.01 to 50.1 nM.
Turning to `COCC1CCN(CCNC(=O)c2nn(-c3cc4c(cc3OC)NCCO4)c3cc(-c4cnn5cccnc45)ncc23)CC1` [Example 47, 1-(6-methoxy-3,4-dihydro-2H-benzo[b][1,4]oxazin-7-yl)-N-(2-(4-(methoxymethyl)piperidin-1-yl)ethyl)-6-(pyrazolo[1,5-a]pyrimidin-3-yl)-1H-pyrazolo[4,3-c]pyridine-3-carboxamide], the IC50 is 5.01 to 50.1 nM.
The value for `COc1cc2c(cc1-n1nc(C(=O)NC[C@H]3CN(C)CCO3)c3cnc(-c4cnn5cccnc45)cc31)SCC(=O)N2` [Example 22, (S)-1-(6-methoxy-3-oxo-3,4-dihydro-2H-benzo[b][1,4]thiazin-7-yl)-N-((4-methylmorpholin-2-yl)methyl)-6-(pyrazolo[1,5-a]pyrimidin-3-yl)-1H-pyrazolo[4,3-c]pyridine-3-carboxamide] was 5.01 to 50.1 nM; that for `COc1cc2c(cc1-n1nc(C)c3cnc(-c4cnn5cccnc45)cc31)S(=O)(=O)CCN2` [Example 8, 6-methoxy-7-(3-methyl-6-(pyrazolo[1,5-a]pyrimidin-3-yl)-1H-pyrazolo[4,3-c]pyridin-1-yl)-3,4-dihydro-2H-benzo[b][1,4]thiazine 1,1-dioxide] was 5.01 to 50.1 nM.
Consider `COc1cc2c(cc1-n1nc(C(=O)NCCCN(C)C)c3cnc(Nc4ncc[nH]c4=O)cc31)OCCN2` [Example 75, N-(3-(dimethylamino)propyl)-1-(6-methoxy-3,4-dihydro-2H-benzo[b][1,4]oxazin-7-yl)-6-((3-oxo-3,4-dihydropyrazin-2-yl)amino)-1H-pyrazolo[4,3-c]pyridine-3-carboxamide], for which the half-maximal inhibitory concentration (IC50) was 50.1 to 501 nM.
As for `COc1cc2c(cc1-n1nc(NC(=O)OCCCN3CCN(C)CC3)c3cnc(-c4cnn5cccnc45)cc31)SCCN2` [Example 30, 3-(4-methylpiperazin-1-yl)propyl (1-(6-methoxy-3,4-dihydro-2H-benzo[b][1,4]thiazin-7-yl)-6-(pyrazolo[1,5-a]pyrimidin-3-yl)-1H-pyrazolo[4,3-c]pyridin-3-yl)carbamate], the figure is 5.01 to 50.1 nM; as for `COc1cc2c(cc1-n1nc(NC(=O)OCCN3CCS(=O)(=O)CC3)c3cnc(-c4cnn5cccnc45)cc31)OCCN2` [Example 62, 2-(1,1-dioxidothiomorpholino)ethyl (1-(6-methoxy-3,4-dihydro-2H-benzo[b][1,4]oxazin-7-yl)-6-(pyrazolo[1,5-a]pyrimidin-3-yl)-1H-pyrazolo[4,3-c]pyridin-3-yl)carbamate], 5.01 to 50.1 nM.
`COc1cc2c(cc1-n1nc(C(=O)NCCN3CCC4(CC3)COC(=O)C4)c3cnc(-c4cnn5cccnc45)cc31)OCCN2` [Example 51, 1-(6-methoxy-3,4-dihydro-2H-benzo[b][1,4]oxazin-7-yl)-N-(2-(3-oxo-2-oxa-8-azaspiro[4.5]decan-8-yl)ethyl)-6-(pyrazolo[1,5-a]pyrimidin-3-yl)-1H-pyrazolo[4,3-c]pyridine-3-carboxamide]: the IC50 was less than 5.01 nM.
`COc1cc2c(cc1-n1nc(NC(=O)OCCN3CCOCC3)c3cnc(-c4cnn5cccnc45)cc31)OCCN2` [Example 58, 2-morpholinoethyl (1-(6-methoxy-3,4-dihydro-2H-benzo[b][1,4]oxazin-7-yl)-6-(pyrazolo[1,5-a]pyrimidin-3-yl)-1H-pyrazolo[4,3-c]pyridin-3-yl)carbamate] gave an IC50 of 5.01 to 50.1 nM.
Compound `COc1cc2c(cc1-n1nc(C(=O)NCCN3CCCC4(COC4)C3)c3cnc(-c4cnn5cccnc45)cc31)OCCN2` [Example 49, N-(2-(2-oxa-6-azaspiro[3.5]nonan-6-yl)ethyl)-1-(6-methoxy-3,4-dihydro-2H-benzo[b][1,4]oxazin-7-yl)-6-(pyrazolo[1,5-a]pyrimidin-3-yl)-1H-pyrazolo[4,3-c]pyridine-3-carboxamide] gave a half-maximal inhibitory concentration (IC50) of 5.01 to 50.1 nM.
The compound `COc1cc2c(cc1-n1nc(C(=O)NCCCN3CCC(F)(F)CC3)c3cnc(Nc4ncc[nH]c4=O)cc31)OCCN2` [Example 76, N-(3-(4,4-difluoropiperidin-1-yl)propyl)-1-(6-methoxy-3,4-dihydro-2H-benzo[b][1,4]oxazin-7-yl)-6-((3-oxo-3,4-dihydropyrazin-2-yl)amino)-1H-pyrazolo[4,3-c]pyridine-3-carboxamide] had an IC50 of 5.01 to 50.1 nM.
Consider `COc1cc2c(cc1-n1nc(C(=O)NCCN3CC4(COC(=O)C4)C3)c3cnc(-c4cnn5cccnc45)cc31)OCCN2` [Example 81, 1-(6-methoxy-3,4-dihydro-2H-benzo[b][1,4]oxazin-7-yl)-N-(2-(7-oxo-6-oxa-2-azaspiro[3.4]octan-2-yl)ethyl)-6-(pyrazolo[1,5-a]pyrimidin-3-yl)-1H-pyrazolo[4,3-c]pyridine-3-carboxamide], for which the IC50 was 5.01 to 50.1 nM.
The value for `COc1cc2c(cc1-n1nc(NCCN(C)C)c3cnc(Nc4ncc[nH]c4=O)cc31)OCCN2` [Example 74, 3-((3-((2-(dimethylamino)ethyl)amino)-1-(6-methoxy-3,4-dihydro-2H-benzo[b][1,4]oxazin-7-yl)-1H-pyrazolo[4,3-c]pyridin-6-yl)amino)pyrazin-2(1H)-one] was 50.1 to 501 nM.
The compound `COc1cc2c(cc1-n1nc(NC(=O)OCCN(C)C)c3cnc(-c4cnn5cccnc45)cc31)CCCN2` [Example 69, 2-(dimethylamino)ethyl (1-(7-methoxy-1,2,3,4-tetrahydroquinolin-6-yl)-6-(pyrazolo[1,5-a]pyrimidin-3-yl)-1H-pyrazolo[4,3-c]pyridin-3-yl)carbamate] gave an IC50 of 5.01 to 50.1 nM.
Compound `COc1cc2c(cc1-n1nc(NC(=O)OCCN3CC[C@@H](OC)C3)c3cnc(-c4cnn5cccnc45)cc31)SCCN2` [Example 35, (R)-2-(3-methoxypyrrolidin-1-yl)ethyl (1-(6-methoxy-3,4-dihydro-2H-benzo[b][1,4]thiazin-7-yl)-6-(pyrazolo[1,5-a]pyrimidin-3-yl)-1H-pyrazolo[4,3-c]pyridin-3-yl)carbamate] had an IC50 of 5.01 to 50.1 nM.
In the case of `COc1cc2c(cc1-n1nc(NC(=O)OCCN(C)C)c3cnc(-c4cnn5cccnc45)cc31)CCC(=O)N2` [Example 27, 2-(dimethylamino)ethyl (1-(7-methoxy-2-oxo-1,2,3,4-tetrahydroquinolin-6-yl)-6-(pyrazolo[1,5-a]pyrimidin-3-yl)-1H-pyrazolo[4,3-c]pyridin-3-yl)carbamate], the half-inhibitory concentration (IC50) is 5.01 to 50.1 nM.
`COc1cc2c(cc1-n1nc(C(=O)NCCN3CC4(CCOCC4)C3)c3cnc(-c4cnn5cccnc45)cc31)OCCN2` [Example 48, N-(2-(7-oxa-2-azaspiro[3.5]nonan-2-yl)ethyl)-1-(6-methoxy-3,4-dihydro-2H-benzo[b][1,4]oxazin-7-yl)-6-(pyrazolo[1,5-a]pyrimidin-3-yl)-1H-pyrazolo[4,3-c]pyridine-3-carboxamide] had an IC50 of less than 5.01 nM.
Turning to `COc1cc2c(cc1-n1nc(NC(=O)C3CCN(C)CC3)c3cnc(-c4cnn5cccnc45)cc31)OCCN2` [Example 84, N-(1-(6-methoxy-3,4-dihydro-2H-benzo[b][1,4]oxazin-7-yl)-6-(pyrazolo[1,5-a]pyrimidin-3-yl)-1H-pyrazolo[4,3-c]pyridin-3-yl)-1-methylpiperidine-4-carboxamide], the IC50 was 5.01 to 50.1 nM.
The value for `COc1cc2[nH]c(=O)oc2cc1-n1nc(NCCN2CCOCC2)c2cnc(-c3cnn4cccnc34)cc21` [Example 72, 5-methoxy-6-(3-((2-morpholinoethyl)amino)-6-(pyrazolo[1,5-a]pyrimidin-3-yl)-1H-pyrazolo[4,3-c]pyridin-1-yl)benzo[d]oxazol-2(3H)-one] was 50.1 to 501 nM.
